# Assay results published in patent publication US20210024507A1, “Compounds” (Step Pharma S.A.S., priority 2018, published 2021).
# Target: T1, human CTPS1 (Homo sapiens, UniProt P17812)
# T1 construct: purchased Proteros biostructures GmbH
# T1 sequence (P17812 1-591): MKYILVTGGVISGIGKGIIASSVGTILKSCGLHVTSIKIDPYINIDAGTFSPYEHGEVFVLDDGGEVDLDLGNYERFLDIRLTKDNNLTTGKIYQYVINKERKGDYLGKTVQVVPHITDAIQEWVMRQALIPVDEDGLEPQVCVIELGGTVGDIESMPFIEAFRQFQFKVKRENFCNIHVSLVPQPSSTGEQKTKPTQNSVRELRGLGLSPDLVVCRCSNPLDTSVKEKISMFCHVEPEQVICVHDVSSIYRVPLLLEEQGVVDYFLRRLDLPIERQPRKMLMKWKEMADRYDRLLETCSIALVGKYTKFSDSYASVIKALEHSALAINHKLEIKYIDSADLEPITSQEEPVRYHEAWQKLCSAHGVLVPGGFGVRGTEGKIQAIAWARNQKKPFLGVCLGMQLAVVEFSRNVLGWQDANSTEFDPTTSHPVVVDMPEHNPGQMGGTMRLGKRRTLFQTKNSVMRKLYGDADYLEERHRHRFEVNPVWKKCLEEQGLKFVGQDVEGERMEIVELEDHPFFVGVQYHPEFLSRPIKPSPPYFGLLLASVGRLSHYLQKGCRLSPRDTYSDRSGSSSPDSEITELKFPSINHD
# Assay: Human CTPS1 enzyme inhibition (ADP-Glo Max assay)
# Assay type: biochemical
# Settings: human full length CTPS1, 25° C., read-out: CTPS1 (Human CTPS1 Enzyme Inhibition, IC50 grouped by potency range)
# Summary of the method: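 Full-length C-terminal FLAG-His-tagged CTPS1, preincubated 10 min at 25 °C with compound in 50mM Tris pH 8.0, 10mM MgCl2, 0.01% Tween-20, 2mM L-cysteine. Started with ATP 0.31mM, GTP 0.034mM, UTP 0.48mM, L-glutamine 0.186mM in substrate mix, run within linear phase at 25 °C. ADP via ADP-Glo Max luminescence; IC50 from % inhibition curve.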
row,SMILES,IC50 [nM]
1,"CCOc1cncc(-c2ccc(NC(=O)C(F)(CC)c3cncc(NS(=O)(=O)C4CC4)n3)nc2)n1 (single isomer, unassigned) [P207, 2-(6-(cyclopropanesulfonamido)pyrazin-2-yl)-N-(5-(6-ethoxypyrazin-2-yl)pyridin-2-yl)-2-fluorobutanamide]",≤ 100
2,"CCC(C(=O)Nc1ccc(-c2cncc(OCC(F)(F)F)n2)cc1)c1ccnc(NS(=O)(=O)C2CC2)n1 (stereo not drawn) [P108, 2-(2-(cyclopropanesulfonamido)pyrimidin-4-yl)-N-(4-(6-(2,2,2-trifluoroethoxy)pyrazin-2-yl)phenyl)butanamide]",≤ 100

# System: human CTPS1
# Assay: RapidFire/MS-based enzyme selectivity assay, human CTPS1
# Assay type: biochemical
# Settings: calculated from the CTPS1 and CTPS2 IC50 values
# Method: The enzyme inhibitory activities against each target isoform of interest may be determined for the compounds of the invention using an optimised RapidFire high-throughput mass spectrometry (RF/MS) assay format. RF/MS assays for both human CTPS1 and CTPS2 may be performed in assay buffer consisting of 50mM HEPES (Merck), 20mM MgCl2, 5mM KCI, 1mM DTT, 0.01% Tween-20, pH to 8.0 accordingly. Human full-length active C-terminal FLAG-His-tag CTPS1 (UniProtKB - P17812, CTPS[1-591]-[…]) may be obtained from Proteros biostructures GmbH. Human full length active C-terminal FLAG-His-Avi tagged CTPS2 (UniProtKB-Q9NRF8, CTPS2 [1-586]- […]) may be obtained from Harker Bio.
# Human CTPS (1 or 2) protein may be prepared in lx assay buffer to the final working protein concentration required for the reaction. A 2uL volume per well of 2× CTPS (1 or 2) protein may be mixed with 40nL of compound using acoustic (ECHO) delivery and incubated for 10 minutes at 25° C. Each isoform enzymatic reaction may be subsequently initiated by addition of 2uL per well of a 2× substrate mix in assay buffer. For hCTPS1: ATP (0.3mM), UTP (0.2mM), GTP (0.07mM) and L-glutamine (0.1mM). For hCTPS2: ATP (0.1mM), UTP (0.04mM), GTP (0.03mM) and L-glutamine (0.1mM). Each mixture may be incubated for an appropriate amount of time per isoform within the determined linear phase of the reaction at 25° C. A 60uL volume of stop solution (1% formic acid with 0.5uM ^13C9-^15N3-CTP in H2O) may be added and the plate immediately heat-sealed and centrifuged for 10 minutes at 4,000rpm. Following centrifugation, plates may be loaded onto the Agilent RapidFire microfluidic solid phase extraction system coupled to an AP14000 triple quadrupole mass spectrometer (RF/MS) for analysis.
# In all cases, the enzyme converts UTP to CTP. Highly specific and sensitive multiple reaction monitoring (MRM) MS methods may be optimised for the detection of the enzymatic reaction product, CTP, and the stable isotope labelled product standard ^13C9-^15N3-CTP. Readout for data analysis may be calculated as the ratio between the peak area of the product CTP and the internal standard ^13C9-^15N3-CTP. For data reporting, the following equation may be used:
# [formula] (R=ratio/readout, P=product signal area, IS=internal standard signal area)
# For each screening plate, the means of the negative (DMSO) and positive control values were used for the calculation of the respective assay window (S/B) and Z′ values. The median of the respective control values was used for calculation of percent inhibition according to the following equation:
# [formula] (I=Inhibition, Rneg=median of negative control readout values, Rpos=median of positive control readout values, Rsample=sample readout value)
# Percentage inhibition was then plotted against compound concentration, and the 50% inhibitory concentration (IC50) was determined from the resultant concentration-response curve.
# Fold selectivity between CTPS1 and CTPS2 was subsequently calculated according to the following equation: […]
row,SMILES,Selectivity (fold selectivity between CTPS1 and CTPS2)
1,"CCOc1cncc(-c2ccc(NC(=O)C(F)(CC)c3cncc(NS(=O)(=O)C4CC4)n3)nc2)n1 (single isomer, unassigned) [P207, 2-(6-(cyclopropanesulfonamido)pyrazin-2-yl)-N-(5-(6-ethoxypyrazin-2-yl)pyridin-2-yl)-2-fluorobutanamide]",+ (2-30 fold (+))
2,"CCC(C(=O)Nc1ccc(-c2cncc(OCC(F)(F)F)n2)cc1)c1ccnc(NS(=O)(=O)C2CC2)n1 (stereo not drawn) [P108, 2-(2-(cyclopropanesulfonamido)pyrimidin-4-yl)-N-(4-(6-(2,2,2-trifluoroethoxy)pyrazin-2-yl)phenyl)butanamide]",+++ (>60 fold (+++))
3,"CC(C)(C(=O)Nc1ccc(-c2cccnc2)cc1)c1ccnc(NS(=O)(=O)C2CC2)n1 [P59, 2-(2-(cyclopropanesulfonamido)pyrimidin-4-yl)-2-methyl-N-(4-(pyridin-3-yl)phenyl)propanamide]",+ (2-30 fold (+))
4,"CCOc1cncc(-c2ccc(NC(=O)C(C)(C)c3nc(NS(=O)(=O)C4CC4)ncc3F)cc2)n1 [P68, 2-(2-(cyclopropanesulfonamido)-5-fluoropyrimidin-4-yl)-N-(4-(6-ethoxypyrazin-2-yl)phenyl)-2-methylpropanamide]",++ (>30-60 fold (++))
5,"CCOc1cncc(-c2ccc(NC(=O)C(C)(OC)c3cncc(NS(=O)(=O)C4CC4)n3)nc2)n1 (single isomer, unassigned) [P205a, 2-(6-(cyclopropanesulfonamido)pyrazin-2-yl)-N-(5-(6-ethoxypyrazin-2-yl)pyridin-2-yl)-2-methoxypropanamide]",+++ (>60 fold (+++))
6,"CCOc1cncc(-c2ccc(NC(=O)C(C)(C)c3ccnc(NS(C)(=O)=O)n3)nc2)n1 [P76, N-(5-(6-ethoxypyrazin-2-yl)pyridin-2-yl)-2-methyl-2-(2-(methylsulfonamido)pyrimidin-4-yl)propanamide]",++ (>30-60 fold (++))
7,"CC(C)Oc1cncc(-c2ccc(NC(=O)Cc3ccnc(NS(=O)(=O)C4CC4)n3)cc2)n1 [P21, 2-(2-(cyclopropanesulfonamido)pyrimidin-4-yl)-N-(4-(6-isopropoxypyrazin-2-yl)phenyl)acetamide]",++ (>30-60 fold (++))
8,"CC(C)Oc1cncc(-c2ccc(C(=O)NC(C)(C)c3cncc(NS(=O)(=O)C4CC4)n3)c(F)c2)n1 [P221, N-(2-(6-(cyclopropanesulfonamido)pyrazin-2-yl)propan-2-yl)-2-fluoro-4-(6-isopropoxypyrazin-2-yl)benzamide]",+ (2-30 fold (+))
9,"CCOc1cncc(-c2ccc(NC(=O)C3(c4ccnc(NS(=O)(=O)C5CC5)n4)CCCC3)nc2)n1 [P136, 1-(2-(cyclopropanesulfonamido)pyrimidin-4-yl)-N-(5-(6-ethoxypyrazin-2-yl)pyridin-2-yl)cyclopentane-1-carboxamide]",+++ (>60 fold (+++))
10,"CC(C)Oc1cncc(-c2ccc(NC(=O)C(C)(C)c3ccnc(NS(=O)(=O)C4CC4)n3)c(F)c2)n1 [P39, 2-(2-(cyclopropanesulfonamido)pyrimidin-4-yl)-N-(2-fluoro-4-(6-isopropoxypyrazin-2-yl)phenyl)-2-methylpropanamide]",+ (2-30 fold (+))
11,"CCOc1cncc(-c2ccc(NC(=O)C3(c4cncc(NS(=O)(=O)C5CC5)n4)CCOCC3)nc2)n1 [P197, 4-(6-(cyclopropanesulfonamido)pyrazin-2-yl)-N-(5-(6-ethoxypyrazin-2-yl)pyridin-2-yl)tetrahydro-2H-pyran-4-carboxamide]",+++ (>60 fold (+++))
12,"CCOc1cncc(-c2ccc(NC(=O)C(C)(C)c3nc(NS(=O)(=O)C4CC4)ncc3C)cc2)n1 [P70, 2-(2-(cyclopropanesulfonamido)-5-methylpyrimidin-4-yl)-N-(4-(6-ethoxypyrazin-2-yl)phenyl)-2-methylpropanamide]",+ (2-30 fold (+))
13,"CCOc1cncc(-c2ccc(NC(=O)C(C)(OC)c3cncc(NS(=O)(=O)C4CC4)n3)nc2)n1 (single isomer, unassigned) [P205b, 2-(6-(cyclopropanesulfonamido)pyrazin-2-yl)-N-(5-(6-ethoxypyrazin-2-yl)pyridin-2-yl)-2-methoxypropanamide]",++ (>30-60 fold (++))
14,"CCOc1cncc(-c2ccc(NC(=O)C(C)(C)c3ccnc(NS(=O)(=O)C4CC4)n3)c(F)c2)n1 [P38, 2-(2-(cyclopropanesulfonamido)pyrimidin-4-yl)-N-(4-(6-ethoxypyrazin-2-yl)-2-fluorophenyl)-2-methylpropanamide]",+ (2-30 fold (+))
15,"CCOc1cncc(-c2ccc(NC(=O)C(C)(C)c3ccnc(NS(=O)(=O)C4CC4)n3)nc2)n1 [P31, 2-(2-(cyclopropanesulfonamido)pyrimidin-4-yl)-N-(5-(6-ethoxypyrazin-2-yl)pyridin-2-yl)-2-methylpropanamide]",+++ (>60 fold (+++))
16,"CCOc1cncc(-c2ccc(NC(=O)C(C)(C)c3cncc(NS(=O)(=O)C4CC4)n3)cc2)n1 [P196, 2-(6-(cyclopropanesulfonamido)pyrazin-2-yl)-N-(4-(6-ethoxypyrazin-2-yl)phenyl)-2-methylpropanamide]",+++ (>60 fold (+++))
17,"CC(C)(C(=O)Nc1ccc(-c2cncc(C3CC3)n2)cn1)c1ccnc(NS(=O)(=O)C2CC2)n1 [P125, 2-(2-(cyclopropanesulfonamido)pyrimidin-4-yl)-N-(5-(6-cyclopropylpyrazin-2-yl)pyridin-2-yl)-2-methylpropanamide]",++ (>30-60 fold (++))
18,"CCOc1cncc(-c2ccc(NC(=O)C3(c4ccnc(NS(=O)(=O)C5CC5)n4)CCOCC3)c(F)c2)n1 [P143, 4-(2-(cyclopropanesulfonamido)pyrimidin-4-yl)-N-(4-(6-ethoxypyrazin-2-yl)-2-fluorophenyl)tetrahydro-2H-pyran-4-carboxamide]",+++ (>60 fold (+++))
19,"CCOc1cncc(-c2ccc(NC(=O)C(CCOC)c3ccnc(NS(=O)(=O)C4CC4)n3)c(F)c2)n1 (stereo not drawn) [P146, 2-(2-(cyclopropanesulfonamido)pyrimidin-4-yl)-N-(4-(6-ethoxypyrazin-2-yl)-2-fluorophenyl)-4-methoxybutanamide]",+++ (>60 fold (+++))
